Measurements from article PMC10979003, “Development and crystal structures of a potent second-generation dual degrader of BCL-2 and BCL-xL” (Nature Communications, 2024).

How the values were obtained:
BCL-xL R103A/D107A/S110A = biological target: T1, BCL-xL R103A/D107A/S110A (Homo sapiens, UniProt Q07817, D107A/R103A/S110A); assay: AlphaScreen binary binding, BCL-xL R103A/D107A/S110A; conditions: mean ± s.d., n=3
T1 construct: BCL-xL (aa 2-212) and BCL-2 (aa 1-207) transformed cells were grown in LB broth; SMT3 (N); made in house; host or cells: E. coli BL21 (DE3) codon plus
T1 sequence (Q07817 2-212 R103A/D107A/S110A): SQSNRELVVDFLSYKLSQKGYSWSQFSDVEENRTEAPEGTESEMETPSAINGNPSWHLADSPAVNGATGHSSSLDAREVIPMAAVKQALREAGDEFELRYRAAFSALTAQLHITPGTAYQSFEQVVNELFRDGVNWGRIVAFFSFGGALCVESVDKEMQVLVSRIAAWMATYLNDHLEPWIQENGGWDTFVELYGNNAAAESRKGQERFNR
Procedure: (§1) To test the binary/ternary binding affinities of compounds to BCL-2/BCL-xL, AlphaScreen displacement binding assay was performed to test the capabilities of testing compounds to displace a Biotin-tagged Bim (Biotin-[…]) or Bad (Biotin-[…]) from BCL-2 or BCL-xL for BCL-2 and BCL-xL binding affinities, respectively. All reagents were diluted in assay buffer of 25 mM HEPES, pH 7.5, 150 mM NaCl, 0.1% BSA, and 0.005% tween 20 prior incubation. To a 96-well PCR plate (VWR, Cat. No. 82006-636) was added 10 μL Biotin-tagged Bim (15 nM for WT or 50 nM for mutants) or Bad (15 nM for WT or 50 nM for mutants), 10 μL series diluted compounds solution (2 or 3 or 4× dilution), and 10 μL self-made 6×His tagged BCL-2 WT or mutants (25 nM WT or 50 nM mutants) or 10 μL self-made BCL-xL WT and mutants (10 nM WT or 50 nM mutants). […] The luminescence signal was detected on a Biotek’s Synergy Neo2 multimode plate reader installed with an AphaScreen filter cube. The Ki values of each compounds were calculated by fitting data into the “Binding-competitive, One site-Fit Ki” function in GraphPad Prism (9.2.0) based on concentrations of Biotin–peptide used and experimentally determined Kd values of each 6×His protein &&&and Biotin–Peptide pair.

BCL-xL R103A/D107A = biological target: T2, BCL-xL R103A/D107A (Homo sapiens, UniProt Q07817, D107A/R103A); assay: AlphaScreen binary binding, BCL-xL R103A/D107A; conditions: mean ± s.d., n=3
T2 construct: BCL-xL (aa 2-212) and BCL-2 (aa 1-207) transformed cells were grown in LB broth; SMT3 (N); made in house; host or cells: E. coli BL21 (DE3) codon plus
T2 sequence (Q07817 2-212 R103A/D107A): as the sequence (Q07817 2-212 R103A/D107A/S110A) above, with A109S counted along it
Procedure: as §1

[1] = biological target: T3, BCL-xL R103A/D107A/S110A/Q111A (Homo sapiens, UniProt Q07817, D107A/Q111A/R103A/S110A); assay: AlphaScreen binary binding, BCL-xL R103A/D107A/S110A/Q111A; conditions: mean ± s.d., n=3; read-out: Ki (nM, n=3), BCL-xL R103A/D107A/S110A/Q111AA
T3 construct: BCL-xL (aa 2-212) and BCL-2 (aa 1-207) transformed cells were grown in LB broth; SMT3 (N); made in house; host or cells: E. coli BL21 (DE3) codon plus
T3 sequence (Q07817 2-212 R103A/D107A/S110A/Q111A): as the sequence (Q07817 2-212 R103A/D107A/S110A) above, with Q110A counted along it
Procedure: as §1

BCL-2 E114A [2] = biological target: T4, BCL-2 E114A (Homo sapiens, UniProt P10415+P40337, E114A); assay: Polyubiquitin chain formation assay, BCL-2 E114A; format: biochemical; conditions: 10 μM WH244, 1 h, Fig. 5d
T4 construct: BCL-xL (aa 2-212) and BCL-2 (aa 1-207) transformed cells were grown in LB broth; VHL (aa 54-213) and ElonginBC were co-transformed (VCB); 6xHis (TEV-cleavable) (N, cleaved yes); made in house; host or cells: E. coli BL21 (DE3) codon plus (BCL-2, VCB); Trichoplusia ni High-Five insect cells (Cullin2-Rbx1)
Procedure: WT BCL-xL/BCL-2 (5 μM) were ubiquitinated in the presence of E1 SpUba1 (0.1 μM), E2, UbcH5c (1 μM) and Cdc34 (1 μM), ubiquitin (75 μM), VHL-Elongin C-Elongin B complex (0.35 μM), neddylated Cullin2-Rbx1 complex (0.35 μM) and 753b or WH244 (10 μM) at 37 °C in a buffer of 50 mM HEPES, pH 7.5, 10 mM MgCl2, 100 mM NaCl, 2 mM ATP, and 0.5 mM DTT. The reaction mixture was incubated for indicated time points (Supplementary Fig. 4a, b, d, e, g, h) and was terminated by the addition of 1× reducing SDS-PAGE loading buffer. The polyUb chain formation was assessed using immunoblotting as described earlier. For polyUb chain formation on mutant proteins used in this study, the above protocol was used with a fixed time-point of 1 h.

Jurkat cells = assay: Viability (MTS) assay in Jurkat cells; format: cell-based, human; conditions: 72 h
Procedure: For the viability assays in Jurkat cells, the cells in complete cell culture medium were seeded in 96-well plates (100 µl per well) at the optimized densities (50,000 cells). Compound treatments were prepared in complete cell culture medium and 100 µl of 2× treatment-containing medium were added to each well. Complete cell culture medium without treatment was added in control wells, and wells containing medium without cells served as background. The outer wells of the 96-well plate were not used for treatment and were filled with 250 µl of PBS to reduce evaporation of medium from inner wells. Each compound and/or combination was tested at nine different concentrations with three replicates. The cell viability was measured after 72 h by tetrazolium-based MTS assay. […] The cells were incubated for 4 h at 37 °C and 5% CO2, and then the absorbance was recorded at 490 nm using Biotek’s Synergy Neo2 multimode plate reader (Biotek). The average absorbance value of background wells was subtracted from absorbance value of each control and treatment well, and percent cell viability ((At/A0) × 100) was determined in each treatment well, where At is the absorbance value of the treatment well and A0 is the average absorbance value of control wells after background subtraction. […]

BCL-2 E114A Q118A = biological target: T5, BCL-2 E114A Q118A (Homo sapiens, UniProt P10415, E114A/Q118A); assay: AlphaScreen binary binding, BCL-2 E114A Q118A; conditions: mean ± s.d., n=3
T5 construct: BCL-xL (aa 2-212) and BCL-2 (aa 1-207) transformed cells were grown in LB broth; made in house; host or cells: E. coli BL21 (DE3) codon plus
T5 sequence (P10415 1-207 E114A/Q118A): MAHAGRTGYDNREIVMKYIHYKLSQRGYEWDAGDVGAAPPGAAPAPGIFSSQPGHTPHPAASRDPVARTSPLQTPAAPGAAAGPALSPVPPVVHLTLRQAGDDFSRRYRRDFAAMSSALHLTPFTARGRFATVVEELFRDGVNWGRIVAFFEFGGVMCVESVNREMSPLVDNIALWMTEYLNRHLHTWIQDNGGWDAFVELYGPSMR
Procedure: as §1

BCL-2 E114A [3] = biological target: T6, BCL-2 E114A (Homo sapiens, UniProt P10415, E114A); assay: AlphaScreen binary binding, BCL-2 E114A
T6 construct: BCL-xL (aa 2-212) and BCL-2 (aa 1-207) transformed cells were grown in LB broth; made in house; host or cells: E. coli BL21 (DE3) codon plus
T6 sequence (P10415 1-207 E114A): as the sequence (P10415 1-207 E114A/Q118A) above, with A118Q counted along it
Procedure: as §1

BCL-2 R110A E114K = biological target: T7, BCL-2 R110A E114K (Homo sapiens, UniProt P10415, E114K/R110A); assay: AlphaScreen binary binding, BCL-2 R110A E114K; conditions: mean ± s.d., n=3
T7 construct: BCL-xL (aa 2-212) and BCL-2 (aa 1-207) transformed cells were grown in LB broth; made in house; host or cells: E. coli BL21 (DE3) codon plus
T7 sequence (P10415 1-207 R110A/E114K): as the sequence (P10415 1-207 E114A/Q118A) above, with R110A, A114K, A118Q counted along it
Procedure: as §1

Row | Structure (SMILES) | Ki (BCL-xL R103A/D107A/S110A) [nM] | Ki (BCL-xL R103A/D107A) [nM] | Ki [1] [nM] | PolyUb chain formation retained by E114A, share of the WT activity (BCL-2 E114A [2]) | Potency in killing Jurkat cells (comparison) (Jurkat cells) | Ki (BCL-2 E114A Q118A) [nM] | Increase in Ki for the binary interaction, mutant E114A versus WT BCL-2 (BCL-2 E114A [3]) | Ki (BCL-2 E114A [3]; mean ± s.d., n=3) [nM] | Ki (BCL-2 R110A E114K) [nM]
1 | Cc1ncsc1-c1ccc(C(C)NC(=O)C2CC(O)CN2C(=O)C(NC(=O)CCCCCCC(=O)N2CCN(CC3(C)CCC(c4ccc(Cl)cc4)=C(CN4CCN(c5ccc(C(=O)NS(=O)(=O)c6ccc(NC(CCN7CCOCC7)CSc7ccccc7)c(S(=O)(=O)C(F)(F)F)c6)cc5)CC4)C3)CC2)C(C)(C)C)cc1 (stereo not drawn) [753b] | 18.4 ± 2.3 | 36.7 ± 3 | 23 ± 4 |  |  |  |  |  | 
2 | Cc1ncsc1-c1ccc([C@H](C)NC(=O)[C@@H]2C[C@@H](O)CN2C(=O)[C@@H](NC(=O)CN2CCN(CC(=O)N3CCN(C[C@]4(C)CCC(c5ccc(Cl)cc5)=C(CN5CCN(c6ccc(C(=O)NS(=O)(=O)c7ccc(N[C@H](CCN8C[C@@H]9C[C@H]8CO9)CSc8ccccc8)c(S(=O)(=O)C(F)(F)F)c7)cc6)CC5)C4)CC3)CC2)C(C)(C)C)cc1 [WH244] |  |  |  | 10-12% | outperformed 753b, DT2216, and ABT263 | 9.6 ± 0.7 | more than two-fold | 7.4 ± 1.5 | 7 ± 0.9
